Measurements: US20260102422A1, “4'-HALOGEN CONTAINING NUCLEOTIDE AND NUCLEOSIDE THERAPEUTIC COMPOSITIONS AND USES RELATED THERETO” (priority 2019, published 2026)

Tests used:
Mayaro = Mayaro antiviral assay; assay type: cell-based; conditions: strain BEAR 505411; Vero 76 cells
H9c2 cells = experiment: Cytotoxicity (CC50) in H9c2 cells; assay type: cell-based; conditions: H9c2, Rat, Heart
[1] = Mouse plasma PK, single dose; conditions: for AUC-INF/Dose / Cmax/Dose: CD-1 mice; for AUC(0-inf) / Cmax / half-life / Tmax: female, ICR (CD-1), mouse, plasma, po
IEC-6 cells = experiment: Cytotoxicity (CC50) in IEC-6 cells; assay type: cell-based; conditions: IEC-6, Rat, Small intestine
Enterovirus-68 = Enterovirus-68 antiviral assay; assay type: cell-based; conditions: strain US/KY/14-18953; RD cells
Machupo = experiment: microbe, parasite or virus in culture; assay type: cell-based, Machupo virus; conditions: Mammarenavirus machupoense
Poliovirus = experiment: microbe, parasite or virus in culture; assay type: cell-based; conditions: Enterovirus C, Vero 76
Huh-7 cells = experiment: Cytotoxicity (CC50) in Huh-7 cells; assay type: cell-based; conditions: Huh7, Human, Liver, n = 3
RD cells = experiment: Cytotoxicity (CC50) in RD cells; assay type: cell-based, Human; conditions: RD, Human, Muscle
[2] = Cytotoxicity (CC50) in RD cells; assay type: cell-based, Human; conditions: human, RD cells, alongside antiviral assays
A-204 cells = experiment: Cytotoxicity (CC50) in A-204 cells; assay type: cell-based; conditions: A204, Human, Muscle
CEM cells = experiment: Cytotoxicity (CC50) in CEM cells; assay type: cell-based; conditions: Human, Lymphoid
[3] = Cytotoxicity (CC50) in HeLa cells; assay type: cell-based; conditions: human, alongside antiviral assays
EEEV = experiment: microbe, parasite or virus in culture; assay type: cell-based; conditions: Eastern equine encephalitis virus, Vero 76
HBTECs = experiment: Cytotoxicity (CC50) in HBTECs; assay type: cell-based; conditions: Human, Respiratory Tract
Pichinde virus = assay type: cell-based
HepG2/Gal* cells = experiment: Cytotoxicity (CC50) in HepG2/Gal* cells; assay type: cell-based; conditions: Human
Vero cells = conditions: green monkey
[4] = Ferret plasma PK, single dose; assay type: in vivo; conditions: ferrets; for AUC(0-inf) / Cmax / Tmax / half-life: plasma
Junin virus = experiment: microbe, parasite or virus in culture; assay type: cell-based; conditions: Mammarenavirus juninense
BxPC-3 cells = experiment: Cytotoxicity (CC50) in BxPC-3 cells; assay type: cell-based; conditions: BxPC-3, Human, Pancreas
MDCK cells = experiment: Cytotoxicity (CC50) in MDCK cells; assay type: cell-based; conditions: Canine, Kidney, n = 6
Lassa fever virus = experiment: organism not typed; assay type: cell-based
BEAS-28 cells = experiment: Cytotoxicity (CC50) in BEAS-28 cells; assay type: cell-based; conditions: BEAS-28, Human, Lung
HG23 cells = experiment: Cytotoxicity (CC50) in HG23 cells; assay type: cell-based; conditions: HG23, Human
BHK-T7 cells = experiment: Cytotoxicity (CC50) in BHK-T7 cells; assay type: cell-based; conditions: BHK-T7, Hamster, Kidney
BEAS-28/Gal* cells = experiment: Cytotoxicity (CC50) in BEAS-28/Gal* cells; assay type: cell-based; conditions: Human, Lung
MDCK/Gal* cells = experiment: Cytotoxicity (CC50) in MDCK/Gal* cells; assay type: cell-based; conditions: Canine, Kidney
RAW264.7 cells = experiment: Cytotoxicity (CC50) in RAW264.7 cells; assay type: cell-based; conditions: RAW 264.7, Mouse, Macrophage
Lujo = experiment: microbe, parasite or virus in culture; assay type: cell-based, Lujo virus; conditions: Mammarenavirus lujoense
MA-104 cells = experiment: Cytotoxicity (CC50) in MA-104 cells; assay type: cell-based; conditions: MA-104, Monkey, Kidney, n = 2
A549 cells = experiment: Cytotoxicity (CC50) in A549 cells; assay type: cell-based; conditions: A549, Human, Lung
Measles = Measles antiviral assay; assay type: cell-based, measles virus; conditions: Measles morbillivirus; strain CC; Vero 76 cells
[5] = Guinea pig plasma PK, single dose; assay type: in vivo; conditions: Guinea pigs
MERS = experiment: microbe, parasite or virus in culture; assay type: cell-based, Middle East Respiratory Syndrome coronavirus
HCoV-alpha 229E = HCoV-alpha 229E antiviral assay; assay type: cell-based, HCoV-229E; conditions: Human coronavirus 229E; strain 229E; Huh-7 cells
SARS = experiment: microbe, parasite or virus in culture; assay type: cell-based, SARS coronavirus; conditions: Severe acute respiratory syndrome coronavirus, Vero 76
HCoV-beta OC43 = HCoV-beta OC43 antiviral assay; assay type: cell-based; conditions: Betacoronavirus 1; strain OC43; RD cells
SARS-CoV-2 = experiment: microbe, parasite or virus in culture; assay type: cell-based; conditions: Severe acute respiratory syndrome coronavirus 2, Calu-3
in vitro = conditions: human
[6] = guinea pig, 50 mg/kg PO, plasma

For `O=c1ccn([C@@H]2O[C@](F)(CO)[C@@H](O)[C@H]2O)c(=O)[nH]1` [EIDD-02749, 1-[(2R, 3R, 4S, 5S)-5-fluoro-3,4-dihydroxy-5-(hydroxymethyl)tetrahydrofuran-2-yl]pyrimidine-2,4-dione], the EC50 (Mayaro) was 2810 nM, the EC90 (Mayaro) was 9.5 µM and the “CC” value (H9c2 cells) was over 400 µM. It also gave an AUC-INF/Dose ([1]; 10 mg/kg IP) of 514.5 h*kg*nmol/mL/mmol, a Cmax/Dose ([1]; 10 mg/kg IP) of 202.1 kg*nmol/mL/mmol and an AUC-INF/Dose ([1]; 50 mg/kg PO) of 1215.0 h*kg*nmol/mL/mmol. It also gave a Cmax/Dose ([1]; 50 mg/kg PO) of 184.3 kg*nmol/mL/mmol, an AUC-INF/Dose ([1]; 150 mg/kg PO) of 685.8 h*kg*nmol/mL/mmol and a Cmax/Dose ([1]; 150 mg/kg PO) of 76.2 kg*nmol/mL/mmol. The Cmax/Dose ([1]; 500 mg/kg PO) was 39.9 kg*nmol/mL/mmol, the AUC(0-inf) ([1]; 1.5 mg/kg) was 6.58 µM·h and the Cmax ([1]; 1.5 mg/kg) was 1.2 µM. The half-life ([1]; 1.5 mg/kg) was 1070 min, the AUC(0-inf) ([1]; 5 mg/kg) was 28.6 µM·h and the Cmax ([1]; 5 mg/kg) was 7.1 µM. For the same molecule, the half-life ([1]; 5 mg/kg) was 912 min, the AUC(0-inf) ([1]; 15 mg/kg) was 86.9 µM·h and the Cmax ([1]; 15 mg/kg) was 23.3 µM. The half-life ([1]; 15 mg/kg) was 1220 min, the half-life ([1]; 50 mg/kg) was 497 min and the Tmax ([1]; 150 mg/kg) was 1 h. The half-life ([1]; 150 mg/kg) was 508 min, the Tmax ([1]; 500 mg/kg) was 1 h and the “CC” value (IEC-6 cells) was over 400 µM. The EC90 (Enterovirus-68) was 1060 nM, the EC50 (Machupo; HeLa) was 70 nM and the EC50 (Machupo; Huh-7) was 310 nM. For the same molecule, the EC50 (Machupo; Vero C1008) was 1490 nM, the EC90 (Poliovirus) was 3.8 µM and the “CC” value (Huh-7 cells) was over 400 µM. The “CC” value (RD cells) was over 380 µM, the CC50 [2] was 228 µM and the “CC” value (A-204 cells) was over 400 µM. The “CC” value (CEM cells) was 107 µM, the CC50 [3] was 77 µM and the EC90 (EEEV) was 1790 nM. The “CC” value (HBTECs) was over 500 µM, the EC90 (Pichinde virus) was 320 nM and the “CC” value (HepG2/Gal* cells) was over 400 µM. For the same molecule, the “CC” value (Vero cells) was over 380 µM, the AUC-INF/Dose ([4]; 15 mg/kg PO) was 2691.2 ± 483.7 h*kg*nmol/mL/mmol and the Cmax/Dose ([4]; 15 mg/kg PO) was 608.2 ± 114.0 kg*nmol/mL/mmol. For the same molecule, the AUC(0-inf) ([4]; 15 mg/kg PO) was 154 ± 27.6 µM·h, the Cmax ([4]; 15 mg/kg PO) was 34.8 ± 6.5 µM and the Tmax ([4]; 15 mg/kg PO) was 1 h. For the same molecule, the half-life ([4]; 15 mg/kg PO) was 358 ± 21 min, the AUC-INF/Dose ([4]; 50 mg/kg PO) was 2166.1 ± 409.8 h*kg*nmol/mL/mmol and the Cmax/Dose ([4]; 50 mg/kg PO) was 332.0 ± 57.5 kg*nmol/mL/mmol. For the same molecule, the AUC(0-inf) ([4]; 50 mg/kg PO) was 413 ± 78.1 µM·h, the Cmax ([4]; 50 mg/kg PO) was 63.3 ± 10.9 µM and the Tmax ([4]; 50 mg/kg PO) was 2.3 ± 1.5 h. The half-life ([4]; 50 mg/kg PO) was 258 ± 48 min, the EC50 (Junin virus; HeLa) was 20 nM and the EC50 (Junin virus; Huh-7) was 250 nM. For the same molecule, the EC50 (Junin virus; Vero C1008) was 80 nM, the “CC” value (BxPC-3 cells) was over 400 µM and the “CC” value (MDCK cells) was over 380 µM. It also gave an EC50 (Lassa fever virus; HeLa) of 450 nM, an EC50 (Lassa fever virus; Huh-7) of 900 nM and an EC50 (Lassa fever virus; Vero C1008) of 360 nM. The “CC” value (BEAS-28 cells) was over 500 µM, the “CC” value (HG23 cells) was 100 µM and the “CC” value (BHK-T7 cells) was over 500 µM. For the same molecule, the “CC” value (BEAS-28/Gal* cells) was 250 µM, the “CC” value (MDCK/Gal* cells) was 444 µM and the “CC” value (RAW264.7 cells) was over 100 µM. It also gave an EC50 (Lujo; HeLa) of 70 nM, an EC50 (Lujo; Huh-7) of 1320 nM and an EC50 (Lujo; Vero C1008) of 830 nM. For the same molecule, the “CC” value (MA-104 cells) was over 380 µM, the “CC” value (A549 cells) was over 400 µM and the EC50 (Measles) was 1060 nM. The “AUC0->∞/Dose” value ([5]; 5 mg/kg IV) was 5639.4 ± 234.2 h · kg · nmol/mL · mmol, the Cmax/Dose ([5]; 5 mg/kg IV) was 7525.0 ± 6050.9 kg · nmol/mL · mmol and the “AUC0->∞/Dose” value ([5]; 5 mg/kg PO) was 4869.4 ± 841.9 h · kg · nmol/mL · mmol. For the same molecule, the Cmax/Dose ([5]; 5 mg/kg PO) was 1054.5 ± 118.8 kg · nmol/mL · mmol, the VD ([5]; 5 mg/kg PO) was 13.0 ± 1.6 L/kg and the “AUC0->∞/Dose” value ([5]; 50 mg/kg PO) was 2923.1 ± 209.6 h · kg · nmol/mL · mmol. The Cmax/Dose ([5]; 50 mg/kg PO) was 453.0 ± 51.2 kg · nmol/mL · mmol, the VD ([5]; 50 mg/kg PO) was 14.9 ± 1.9 L/kg and the clearance ([5]; guinea pig, plasma, 5 mg/kg IV) was 3 mL/min/kg. It also gave an AUC(0-inf) ([5]; guinea pig, 5 mg/kg IV, plasma) of 108 ± 4.5 µM·h, a Cmax ([5]; guinea pig, 5 mg/kg IV, plasma) of 144 ± 115 µM and a Tmax ([5]; guinea pig, 5 mg/kg IV, plasma) of 0.083 h. It also gave a half-life ([5]; guinea pig, 5 mg/kg IV, plasma) of 558 ± 78 min, an AUC(0-inf) ([5]; guinea pig, 5 mg/kg PO, plasma) of 92.9 ± 16.1 µM·h and a Cmax ([5]; guinea pig, 5 mg/kg PO, plasma) of 20.1 ± 2.3 µM. The Tmax ([5]; guinea pig, 5 mg/kg PO, plasma) was 1.3 ± 0.5 h, the half-life ([5]; guinea pig, 5 mg/kg PO, plasma) was 1210 ± 138 min and the AUC(0-inf) [5, 6] was 558 ± 39.9 µM·h. For the same molecule, the Cmax [5, 6] was 86.4 ± 9.8 µM, the Tmax [5, 6] was 1.8 ± 0.5 h and the half-life [5, 6] was 5180 ± 588 min.

With `O=c1ccn([C@@H]2O[C@](F)(CO)[C@@H](O)[C@H]2O)c(=O)[nH]1` [EIDD-2749] the EC50 (MERS) was 5.7 µM, the EC90 (MERS; Middle East respiratory syndrome-related coronavirus, Vero 76) was 9.5 µM and the EC50 (HCoV-alpha 229E) was 1670 nM. It also gave an EC90 (HCoV-alpha 229E) of 9.5 µM, an EC50 (SARS) of 14.1 µM and an EC50 (HCoV-beta OC43) of 1060 nM. For the same molecule, the EC90 (HCoV-beta OC43) was 2850 nM, the EC50 (SARS-CoV-2) was 1900 nM and the CC50 (in vitro) was over 50 µM.
